Source: publication PMC9736855, “Discovery of 3-Amino-1H-pyrazole-Based Kinase Inhibitors to Illuminate the Understudied PCTAIRE Family” (International Journal of Molecular Sciences, 2022)

How the values were obtained:
Test in all cases: DSF
Assay type in all cases: binding
STK3 = target: T1, STK3 (Homo sapiens, UniProt Q13188)
T1 construct: purchased in-house DSF panel (SGC Frankfurt)
T1 sequence (Q13188 16-313): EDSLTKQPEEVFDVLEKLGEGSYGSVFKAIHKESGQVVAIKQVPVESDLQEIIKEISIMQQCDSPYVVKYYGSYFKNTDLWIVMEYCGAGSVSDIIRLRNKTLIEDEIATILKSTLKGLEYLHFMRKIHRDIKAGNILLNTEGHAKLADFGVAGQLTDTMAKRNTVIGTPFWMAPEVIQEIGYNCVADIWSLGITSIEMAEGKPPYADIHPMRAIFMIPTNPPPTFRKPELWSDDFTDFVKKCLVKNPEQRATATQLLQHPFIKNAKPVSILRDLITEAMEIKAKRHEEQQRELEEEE
Experimental: Recombinant protein kinase domains with a concentration of 2 μM were mixed with a 10 μM compound solution in DMSO, 20 mM HEPES, pH 7.5, and 500 mM NaCl. SYPRO Orange (5000×, Invitrogen) was added as a fluorescence probe (1 µl per mL). Subsequently, temperature-dependent protein unfolding profiles were measured, using the QuantStudio™ 5 realtime PCR machine (Thermo Fisher, Waltham, MA, USA). […] The temperature was raised with a step rate of 3 °C per minute. Data points were analyzed with the internal software (Thermal Shift SoftwareTM Version 1.4, Thermo Fisher) using the Boltzmann equation to determine the inflection point of the transition curve [56]. Differences in melting temperature are given as ΔTm values in °C. Measurements were performed in duplicates.

BMP2K = target: T2, BMP2K (Homo sapiens, UniProt Q9NSY1)
T2 construct: purchased in-house DSF panel (SGC Frankfurt)
Experimental: (§1) Measurements were performed in duplicates.

CAMK4 = target: T3, CAMK4 (Homo sapiens, UniProt Q16566)
T3 construct: purchased in-house DSF panel (SGC Frankfurt)
T3 sequence (Q16566 46-300): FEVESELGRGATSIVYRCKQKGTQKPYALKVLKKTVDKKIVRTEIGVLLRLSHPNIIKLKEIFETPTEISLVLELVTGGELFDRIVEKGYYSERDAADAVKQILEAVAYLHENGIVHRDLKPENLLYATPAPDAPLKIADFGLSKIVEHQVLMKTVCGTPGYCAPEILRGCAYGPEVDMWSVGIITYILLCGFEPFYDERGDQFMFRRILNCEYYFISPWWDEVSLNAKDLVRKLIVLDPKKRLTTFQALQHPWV
Experimental: as §1

DAPK1 = target: T4, DAPK1 (Homo sapiens, UniProt P53355)
T4 construct: purchased in-house DSF panel (SGC Frankfurt)
Experimental: as §1

DCAMKL1 = target: T5, DCAMKL1 (Homo sapiens, UniProt O15075)
T5 construct: purchased in-house DSF panel (SGC Frankfurt)
T5 sequence (O15075 390-647): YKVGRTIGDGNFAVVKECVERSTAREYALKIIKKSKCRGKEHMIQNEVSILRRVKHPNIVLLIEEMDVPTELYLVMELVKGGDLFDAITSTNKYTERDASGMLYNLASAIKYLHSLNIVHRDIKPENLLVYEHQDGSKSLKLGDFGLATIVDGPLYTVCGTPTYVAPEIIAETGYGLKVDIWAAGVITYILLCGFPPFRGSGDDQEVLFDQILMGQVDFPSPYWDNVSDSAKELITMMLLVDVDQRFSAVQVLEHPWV
Experimental: as §1

EPHA7 = target: T6, EPHA7 (Homo sapiens, UniProt Q15375)
T6 construct: purchased in-house DSF panel (SGC Frankfurt)
Experimental: as §1

EPHB3 = target: T7, EPHB3 (Homo sapiens, UniProt P54753)
T7 construct: purchased in-house DSF panel (SGC Frankfurt)
T7 sequence (P54753 616-910): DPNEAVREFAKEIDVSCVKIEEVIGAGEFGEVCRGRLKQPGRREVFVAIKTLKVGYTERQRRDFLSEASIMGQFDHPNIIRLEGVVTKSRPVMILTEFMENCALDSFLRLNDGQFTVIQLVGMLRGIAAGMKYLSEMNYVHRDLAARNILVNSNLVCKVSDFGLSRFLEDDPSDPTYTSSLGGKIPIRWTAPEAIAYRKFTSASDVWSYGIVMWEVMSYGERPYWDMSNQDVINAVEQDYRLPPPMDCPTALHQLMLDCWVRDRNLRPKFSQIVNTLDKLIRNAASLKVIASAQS
Experimental: as §1

FLT1 = target: T8, FLT1 (Homo sapiens, UniProt P17948)
T8 construct: purchased in-house DSF panel (SGC Frankfurt)
T8 sequence (P17948 801-1158): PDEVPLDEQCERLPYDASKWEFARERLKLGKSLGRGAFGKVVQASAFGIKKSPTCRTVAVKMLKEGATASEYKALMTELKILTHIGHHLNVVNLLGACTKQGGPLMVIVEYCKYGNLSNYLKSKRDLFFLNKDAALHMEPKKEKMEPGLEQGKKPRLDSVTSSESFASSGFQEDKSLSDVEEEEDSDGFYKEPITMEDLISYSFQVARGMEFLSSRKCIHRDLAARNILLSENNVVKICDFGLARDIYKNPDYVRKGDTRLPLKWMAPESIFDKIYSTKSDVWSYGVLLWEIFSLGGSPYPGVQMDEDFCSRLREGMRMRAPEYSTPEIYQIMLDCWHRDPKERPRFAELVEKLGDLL
Experimental: as §1

MARK4 = target: T9, MARK4 (Homo sapiens, UniProt Q96L34)
T9 construct: purchased in-house DSF panel (SGC Frankfurt)
Experimental: as §1

MELK = target: T10, MELK (Homo sapiens, UniProt Q14680)
T10 construct: purchased in-house DSF panel (SGC Frankfurt)
Experimental: as §1

MERTK = target: T11, MERTK (Homo sapiens, UniProt Q12866)
T11 construct: purchased in-house DSF panel (SGC Frankfurt)
T11 sequence (Q12866 570-864): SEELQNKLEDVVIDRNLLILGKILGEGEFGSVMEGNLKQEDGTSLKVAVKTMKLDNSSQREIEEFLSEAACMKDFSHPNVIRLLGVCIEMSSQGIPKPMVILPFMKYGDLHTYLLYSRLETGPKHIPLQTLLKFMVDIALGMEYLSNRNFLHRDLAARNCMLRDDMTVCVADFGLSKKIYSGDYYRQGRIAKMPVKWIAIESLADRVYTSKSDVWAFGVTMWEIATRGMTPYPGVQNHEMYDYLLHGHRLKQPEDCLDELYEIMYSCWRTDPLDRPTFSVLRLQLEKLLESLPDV
Experimental: as §1

PAK1 = target: T12, PAK1 (Homo sapiens, UniProt Q13153)
T12 construct: purchased in-house DSF panel (SGC Frankfurt)
Experimental: as §1

STK10 = target: T13, STK10 (Homo sapiens, UniProt O94804)
T13 construct: purchased in-house DSF panel (SGC Frankfurt)
Experimental: as §1

STK39 = target: T14, STK39 (Homo sapiens, UniProt Q9UEW8)
T14 construct: purchased in-house DSF panel (SGC Frankfurt)
Experimental: as §1

STK4 = target: T15, STK4 (Homo sapiens, UniProt Q13043)
T15 construct: purchased in-house DSF panel (SGC Frankfurt)
T15 sequence (Q13043 30-281): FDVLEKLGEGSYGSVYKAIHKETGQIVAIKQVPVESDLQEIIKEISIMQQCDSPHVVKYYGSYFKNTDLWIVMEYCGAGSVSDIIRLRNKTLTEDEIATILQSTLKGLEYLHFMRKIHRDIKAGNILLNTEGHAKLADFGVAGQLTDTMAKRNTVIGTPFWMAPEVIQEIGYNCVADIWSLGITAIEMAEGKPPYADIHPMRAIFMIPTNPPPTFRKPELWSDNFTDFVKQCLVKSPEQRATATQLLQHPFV
Experimental: as §1

WNK1 = target: T16, WNK1 (Homo sapiens, UniProt Q9H4A3)
T16 construct: purchased in-house DSF panel (SGC Frankfurt)
Experimental: as §1

T2 sequence (Q9NSY1 38-345): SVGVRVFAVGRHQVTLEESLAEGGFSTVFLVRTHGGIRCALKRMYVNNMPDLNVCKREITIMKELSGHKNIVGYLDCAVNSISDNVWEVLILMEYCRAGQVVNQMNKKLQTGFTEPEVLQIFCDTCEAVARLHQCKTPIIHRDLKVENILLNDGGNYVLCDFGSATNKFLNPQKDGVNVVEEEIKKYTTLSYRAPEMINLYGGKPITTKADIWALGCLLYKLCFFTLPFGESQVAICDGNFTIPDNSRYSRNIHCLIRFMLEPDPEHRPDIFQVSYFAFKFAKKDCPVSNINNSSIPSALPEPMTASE
T6 sequence (Q15375 590-899): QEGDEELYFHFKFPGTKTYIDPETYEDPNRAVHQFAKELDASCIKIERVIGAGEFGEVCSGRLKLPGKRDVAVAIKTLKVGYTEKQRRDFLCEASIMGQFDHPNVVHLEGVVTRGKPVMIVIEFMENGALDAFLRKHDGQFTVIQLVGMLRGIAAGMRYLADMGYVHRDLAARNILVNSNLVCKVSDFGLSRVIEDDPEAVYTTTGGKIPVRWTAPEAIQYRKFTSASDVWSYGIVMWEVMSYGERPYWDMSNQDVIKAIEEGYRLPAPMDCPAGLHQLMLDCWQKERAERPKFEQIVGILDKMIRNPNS
T9 sequence (Q96L34 59-310): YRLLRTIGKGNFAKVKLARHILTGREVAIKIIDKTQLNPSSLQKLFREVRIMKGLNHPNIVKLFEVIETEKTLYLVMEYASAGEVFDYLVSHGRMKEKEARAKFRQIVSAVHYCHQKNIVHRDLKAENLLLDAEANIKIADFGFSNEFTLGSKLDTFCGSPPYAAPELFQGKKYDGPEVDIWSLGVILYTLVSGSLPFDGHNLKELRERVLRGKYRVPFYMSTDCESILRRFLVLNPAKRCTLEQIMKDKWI
T4 sequence (P53355 1-285): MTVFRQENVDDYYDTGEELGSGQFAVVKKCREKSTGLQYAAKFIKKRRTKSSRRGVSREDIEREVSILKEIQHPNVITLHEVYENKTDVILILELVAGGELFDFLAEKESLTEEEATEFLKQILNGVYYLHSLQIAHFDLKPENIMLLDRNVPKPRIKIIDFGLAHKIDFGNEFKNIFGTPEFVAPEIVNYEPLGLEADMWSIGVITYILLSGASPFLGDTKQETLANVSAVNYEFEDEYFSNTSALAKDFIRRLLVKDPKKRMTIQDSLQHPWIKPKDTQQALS
T16 sequence (Q9H4A3 206-483): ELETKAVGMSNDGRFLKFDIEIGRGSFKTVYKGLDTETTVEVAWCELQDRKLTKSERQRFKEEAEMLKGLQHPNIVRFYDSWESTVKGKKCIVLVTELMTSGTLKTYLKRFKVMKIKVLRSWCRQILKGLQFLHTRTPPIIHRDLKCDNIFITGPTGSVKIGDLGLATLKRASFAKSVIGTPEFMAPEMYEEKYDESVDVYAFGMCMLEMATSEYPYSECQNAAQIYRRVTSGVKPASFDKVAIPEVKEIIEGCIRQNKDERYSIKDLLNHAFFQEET
T10 sequence (Q14680 whole entry): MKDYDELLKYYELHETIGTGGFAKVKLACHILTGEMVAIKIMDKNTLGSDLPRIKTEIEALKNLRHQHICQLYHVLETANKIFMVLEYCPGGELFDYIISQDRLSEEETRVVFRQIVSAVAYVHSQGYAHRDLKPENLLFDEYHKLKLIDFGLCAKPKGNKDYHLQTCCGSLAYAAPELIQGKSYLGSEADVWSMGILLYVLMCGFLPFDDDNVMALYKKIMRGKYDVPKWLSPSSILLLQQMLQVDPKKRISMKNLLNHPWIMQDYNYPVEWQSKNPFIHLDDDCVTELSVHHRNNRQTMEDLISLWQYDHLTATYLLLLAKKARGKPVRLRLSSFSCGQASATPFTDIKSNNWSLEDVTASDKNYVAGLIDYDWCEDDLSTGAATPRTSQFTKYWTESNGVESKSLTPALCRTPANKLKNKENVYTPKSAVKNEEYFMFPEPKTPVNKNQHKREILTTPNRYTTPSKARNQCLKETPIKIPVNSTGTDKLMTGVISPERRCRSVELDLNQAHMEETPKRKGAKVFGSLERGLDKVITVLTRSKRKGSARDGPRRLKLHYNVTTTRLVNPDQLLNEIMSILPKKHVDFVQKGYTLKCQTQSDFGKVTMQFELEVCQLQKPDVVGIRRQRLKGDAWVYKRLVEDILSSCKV
T12 sequence (Q13153 249-545): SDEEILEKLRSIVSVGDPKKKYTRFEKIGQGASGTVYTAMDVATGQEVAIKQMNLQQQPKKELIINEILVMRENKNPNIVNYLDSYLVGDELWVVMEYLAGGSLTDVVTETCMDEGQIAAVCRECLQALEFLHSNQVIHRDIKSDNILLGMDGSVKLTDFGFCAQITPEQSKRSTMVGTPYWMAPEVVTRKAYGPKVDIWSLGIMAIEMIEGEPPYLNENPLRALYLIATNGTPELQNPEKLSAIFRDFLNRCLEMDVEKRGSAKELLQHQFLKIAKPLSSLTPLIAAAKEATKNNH
T13 sequence (O94804 18-317): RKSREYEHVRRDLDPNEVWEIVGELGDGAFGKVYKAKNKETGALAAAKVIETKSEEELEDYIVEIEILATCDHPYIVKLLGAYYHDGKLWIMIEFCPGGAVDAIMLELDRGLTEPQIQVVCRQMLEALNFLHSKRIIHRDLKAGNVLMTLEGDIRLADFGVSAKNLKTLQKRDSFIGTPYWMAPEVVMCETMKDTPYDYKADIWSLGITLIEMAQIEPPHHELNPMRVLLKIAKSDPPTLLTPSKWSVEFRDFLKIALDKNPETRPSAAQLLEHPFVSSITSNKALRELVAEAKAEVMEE

| Structure (SMILES) | ΔTm STK3 (STK3) [°C] | ΔTm BMP2K (BMP2K) [°C] | ΔTm CAMK4 (CAMK4) [°C] | ΔTm DAPK1 (DAPK1) [°C] | ΔTm DCAMKL1 (DCAMKL1) [°C] | ΔTm EPHA7 (EPHA7) [°C] | ΔTm EPHB3 (EPHB3) [°C] | ΔTm FLT1 (FLT1) [°C] | ΔTm MARK4 (MARK4) [°C] | ΔTm MELK (MELK) [°C] | ΔTm MERTK (MERTK) [°C] | ΔTm PAK1 (PAK1) [°C] | ΔTm STK10 (STK10) [°C] | ΔTm STK39 (STK39) [°C] | ΔTm STK4 (STK4) [°C] | ΔTm WNK1 (WNK1) [°C] |
| --- | --- | --- | --- | --- | --- | --- | --- | --- | --- | --- | --- | --- | --- | --- | --- | --- |
| CC(C)OC(=O)c1cc(Nc2ccnc(NCc3ccc(NC(=O)OC(C)(C)C)cc3)n2)n[nH]1 [42d, isopropyl 3-((2-((4-((tert-butoxycarbonyl)amino)benzyl)amino)pyrimidin-4-yl)amino)-1H-pyrazole-5-carboxylate] | -1.0 | 1.4 | 0.4 | -0.3 | -2.4 | -3.1 | 1.3 | 0.6 | 0.3 | -0.8 | -0.8 | -1.1 | -0.7 | -0.6 | -0.5 | 0.1 |
| CC(C)(C)OC(=O)Nc1ccc(CNc2nccc(Nc3cc(C(=O)OC(C)(C)C)[nH]n3)n2)cc1 [43d, tert-butyl 3-((2-((4-((tert-butoxycarbonyl)amino)benzyl)amino)pyrimidin-4-yl)amino)-1H-pyrazole-5-carboxylate] | 0.3 | 1.7 | 1.2 | -0.4 | -2.1 | -3.4 | 1.7 | 0.9 | -0.5 | 0.2 | -0.8 | -0.6 | -0.8 | -0.9 | -0.2 | -0.1 |
| COC(=O)c1cc(Nc2ccnc(NCCOCCNC(=O)OC(C)(C)C)n2)[nH]n1 [21d, methyl 5-((2-((2-(2-((tert-butoxycarbonyl)amino)ethoxy)ethyl)amino)pyrimidin-4-yl)amino)-1H-pyrazole-3-carboxylate] | 1.6 | 5.7 | -0.2 | -2.4 | 1.5 | 1.3 | 0.8 | 2.0 | 1.7 | 0.8 | 1.9 | 1.1 | -0.7 | 1.8 | 1.6 | 0.9 |
| CN[C@@H]1C[C@H]2O[C@@](C)([C@@H]1OC)n1c3ccccc3c3c4c(c5c6ccccc6n2c5c31)C(=O)NC4 [staurosporine, reference compound] | 16.6 | 19.1 | 8.6 | 9.8 | 12.4 | 10.3 | 5.0 | 13.6 | 16.4 | 13.8 | 6.6 | 6.6 | 23.3 | 9.6 | 14.9 | 0.9 |
| N#CCc1ccc(Nc2nccc(Nc3cc(C4CC4)[nH]n3)n2)cc1 [compound 1, reference compound] | 11.6 | 18.8 | 5.4 | 4.9 | 8.9 | 4.9 | 5.1 | 10.6 | 8.2 | 9.8 | 4.4 | 3.3 | 10.1 | 7.6 | 9.6 | 1.1 |
| COC(=O)c1cc(Nc2ccnc(NCc3ccc(NC(=O)OC(C)(C)C)cc3)n2)[nH]n1 [21i, methyl 5-((2-((4-((tert-butoxycarbonyl)amino)benzyl)amino)pyrimidin-4-yl)amino)-1H-pyrazole-3-carboxylate] | 1.2 | 2.8 | -0.4 | 0.6 | -0.6 | 0.6 | 0.4 | 2.2 | 3.3 | 0.9 | -0.1 | -0.4 | -0.7 | 2.1 | 2.2 | 0.6 |
